Columns and labels:
[1] = target: T1, Interleukin-1 receptor-associated kinase 4 (Homo sapiens) (UniProt Q9NWZ3); experiment: Inhibition of wild-type human partial length IRAK4 (M1 to S460 residues) expressed in mammalian expression system assessed as residual activity at 1 uM by Kinomescan method relative to control
T1 sequence (whole entry): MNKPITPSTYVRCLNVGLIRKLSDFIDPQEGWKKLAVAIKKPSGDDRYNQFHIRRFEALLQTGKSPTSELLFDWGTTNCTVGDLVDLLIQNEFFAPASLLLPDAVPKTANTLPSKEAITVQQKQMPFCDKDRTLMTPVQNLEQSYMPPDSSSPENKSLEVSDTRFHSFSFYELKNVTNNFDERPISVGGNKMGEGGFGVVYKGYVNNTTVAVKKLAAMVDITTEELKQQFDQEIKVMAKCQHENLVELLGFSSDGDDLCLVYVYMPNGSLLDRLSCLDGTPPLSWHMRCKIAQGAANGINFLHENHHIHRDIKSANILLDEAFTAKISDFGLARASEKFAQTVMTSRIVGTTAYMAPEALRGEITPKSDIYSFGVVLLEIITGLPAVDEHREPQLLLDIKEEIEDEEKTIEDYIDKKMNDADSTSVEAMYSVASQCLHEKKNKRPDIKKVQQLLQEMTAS

[2] = target: Misshapen-like kinase 1 (Homo sapiens) (UniProt Q8N4C8); experiment: Inhibition of wild-type human partial length MINK (M1 to K312 residues) expressed in mammalian expression system assessed as residual activity at 1 uM by Kinomescan method relative to control
[3] = target: Ribosomal protein S6 kinase alpha-6 (Homo sapiens) (UniProt Q9UK32); experiment: Inhibition of wild-type human partial length N-terminal RSK4 kinase domain 1 (M1 to E397 residues) expressed in mammalian expression system assessed as residual activity at 1 uM by Kinomescan method relative to control
[4] = target: Activin receptor type-1-like (Homo sapiens) (UniProt P37023); experiment: Inhibition of wild-type human partial length ACVRL1 (L164 to Q503 residues) expressed in bacterial expression system assessed as residual activity at 1 uM by Kinomescan method relative to control
[5] = Unbound fraction in mouse brain; format: ADME, tissue-based
[6] = target: MAP kinase-interacting serine/threonine-protein kinase 1 (Homo sapiens) (UniProt Q9BUB5); experiment: Inhibition of MNK1 (unknown origin) assessed as residual activity at 1 uM by Kinomescan method relative to control
[7] = target: Maternal embryonic leucine zipper kinase (Homo sapiens) (UniProt Q14680); experiment: Inhibition of wild-type human full length MELK (M1 to V651 residues) expressed in bacterial expression system assessed as residual activity at 1 uM by Kinomescan method relative to control
[8] = target: Mitogen-activated protein kinase kinase kinase 2 (Homo sapiens) (UniProt Q9Y2U5); experiment: Inhibition of MEKK2 (unknown origin) assessed as residual activity at 1 uM by Kinomescan method relative to control
[9] = target: Serine/threonine-protein kinase SIK2 (Homo sapiens) (UniProt Q9H0K1); experiment: Inhibition of wild-type human full length SIK2 (M1 to N926 residues) expressed in bacterial expression system assessed as residual activity at 1 uM by Kinomescan method relative to control
[10] = target: MAP kinase-activated protein kinase 3 (Homo sapiens) (UniProt Q16644); experiment: Inhibition of human MAPKAPK3 assessed as residual activity at 1 uM by Kinomescan method relative to control
[11] = target: Cyclin-dependent kinase 1/cyclin B1 (Homo sapiens) (UniProt P06493+P14635); experiment: Inhibition of wild-type human full length CDK1 (M1 to M297 residues)/Cyclin B expressed in mammalian expression system assessed as residual activity at 1 uM by Kinomescan method relative to control
[12] = target: T2, Mitogen-activated protein kinase kinase kinase kinase 3 (Homo sapiens) (UniProt Q8IVH8); experiment: Inhibition of wild-type human partial length MAP4K3 (M1 to D301 residues) expressed in bacterial expression system assessed as residual activity at 1 uM by Kinomescan method relative to control
T2 sequence (whole entry): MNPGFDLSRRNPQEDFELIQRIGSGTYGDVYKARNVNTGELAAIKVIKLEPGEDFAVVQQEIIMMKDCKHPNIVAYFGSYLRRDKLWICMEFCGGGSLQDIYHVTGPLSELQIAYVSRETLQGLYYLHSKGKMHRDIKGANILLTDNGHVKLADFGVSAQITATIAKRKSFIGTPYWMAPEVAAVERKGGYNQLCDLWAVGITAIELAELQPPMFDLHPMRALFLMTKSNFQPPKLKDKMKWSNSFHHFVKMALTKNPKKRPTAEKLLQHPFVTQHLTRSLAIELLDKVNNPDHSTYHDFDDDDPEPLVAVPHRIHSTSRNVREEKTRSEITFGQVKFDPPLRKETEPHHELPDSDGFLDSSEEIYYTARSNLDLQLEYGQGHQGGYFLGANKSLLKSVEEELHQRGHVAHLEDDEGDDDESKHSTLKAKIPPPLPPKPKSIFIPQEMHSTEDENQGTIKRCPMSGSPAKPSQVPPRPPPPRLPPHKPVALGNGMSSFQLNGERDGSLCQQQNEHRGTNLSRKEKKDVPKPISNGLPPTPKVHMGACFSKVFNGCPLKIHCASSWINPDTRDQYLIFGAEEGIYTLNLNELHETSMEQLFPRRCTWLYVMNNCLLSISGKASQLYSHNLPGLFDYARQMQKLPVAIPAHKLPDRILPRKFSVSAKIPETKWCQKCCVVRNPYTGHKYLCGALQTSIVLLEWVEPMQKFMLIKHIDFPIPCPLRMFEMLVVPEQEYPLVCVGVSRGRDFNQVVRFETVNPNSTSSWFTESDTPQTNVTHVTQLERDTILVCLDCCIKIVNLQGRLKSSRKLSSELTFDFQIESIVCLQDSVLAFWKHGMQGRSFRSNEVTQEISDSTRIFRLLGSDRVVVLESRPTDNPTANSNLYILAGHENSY

[13] = target: Serine/threonine-protein kinase D3 (Homo sapiens) (UniProt O94806); experiment: Inhibition of wild-type human partial length PRKD3 (S543 to E863 residues) expressed in bacterial expression system assessed as residual activity at 1 uM by Kinomescan method relative to control
[14] = target: Ribosomal protein S6 kinase alpha-5 (Homo sapiens) (UniProt O75582); experiment: Inhibition of wild-type human partial length N-terminal RPS6KA5 kinase domain 1 expressed in bacterial expression system assessed as residual activity at 1 uM by Kinomescan method relative to control
[15] = target: Tyrosine-protein kinase ZAP-70 (Homo sapiens) (UniProt P43403); experiment: Inhibition of wild-type human partial length ZAP70 (D20 to G299 residues) expressed in mammalian expression system assessed as residual activity at 1 uM by Kinomescan method relative to control
[16] = target: Serine/threonine-protein kinase Nek7 (Homo sapiens) (UniProt Q8TDX7); experiment: Inhibition of wild-type human full length NEK7 (M1 to S302 residues) expressed in bacterial expression system assessed as residual activity at 1 uM by Kinomescan method relative to control

CCOc1nc(Nc2ccc(C(=O)N3CCOCC3)cc2OC)nc2[nH]ccc12
Activity [1]: 104%
Activity [2]: 107%
Activity [3]: 87.5%
Activity [4]: 74%
fraction unbound [5]: 0.01
Activity [6]: 98.7%
Activity [7]: 97.9%
Activity [8]: 99.3%
Activity [9]: 97%
Activity [10]: 101%
Activity [11]: 92.2%
Activity [12]: 88.9%
Activity [13]: 63.7%
Activity [14]: 97.6%
Activity [15]: 124%
Activity [16]: 97.7%

Reference: ChEMBL document CHEMBL4715821, “Discovery of 4-ethoxy-7H-pyrrolo[2,3-d]pyrimidin-2-amines as potent, selective and orally bioavailable LRRK2 inhibitors” (Bioorg Med Chem Lett, 2018)
